Test results reported in ChEMBL document CHEMBL1800007, “Synthesis, activity, and structural analysis of novel α-hydroxytropolone inhibitors of human immunodeficiency virus reverse transcriptase-associated ribonuclease H” (J Med Chem, 2011).
The source made the active and inactive calls. No cut-off for these calls is given here.

Legend:
CEM-SS = assay: (§1) Cytotoxicity against human CEM-SS cells; type: cell-based; details: cem-ss
[1] = target: Human immunodeficiency virus type 1 reverse transcriptase (Human immunodeficiency virus 1, UniProt Q72547); assay: Inhibition of RNase H activity of his6-tagged HIV1 HXB2 reverse transcriptase p66/p51 expressed in Escherichia coli assessed as substrate cleavage at polypurine tract by PAGE-based fluorescent imaging method
[2] = test system: Human immunodeficiency virus 1; details: at 20 µM
Description: Inhibition of DNA dependent DNA polymerase activity of his6-tagged HIV1 HXB2 reverse transcriptase p66 D549A/p51 mutant expressed in Escherichia coli at 20 uM using fluorescently tagged duplex DNA substrate by PAGE and fluorescent imaging method

[3] = test system: Human immunodeficiency virus 1; details: at 20 µM; remark: listed apart in the source
Description: Inhibition of DNA dependent DNA polymerase activity of his6-tagged HIV1 HXB2 reverse transcriptase p66 E478Q/p51 mutant expressed in Escherichia coli at 20 uM using fluorescently tagged duplex DNA substrate by PAGE and fluorescent imaging method

[4] = test system: Human immunodeficiency virus 1; assay: Antiviral activity against HIV1 RF infected in human CEM-SS cells assessed as protection against virus-induced cytopathic effect; type: functional, organism-based
[5] = as §1; type: cell-based; details: CEM-SS cells
[6] = target: Human immunodeficiency virus type 1 reverse transcriptase (Human immunodeficiency virus 1) (UniProt Q72547); details: HXB2, at 20 µM
Description: Inhibition of DNA dependent DNA polymerase activity of his6-tagged HIV1 HXB2 reverse transcriptase p66/p51 expressed in Escherichia coli at 20 uM using fluorescently tagged duplex DNA substrate by PAGE and fluorescent imaging method

[7] = Therapeutic index, CC50 for human CEM-SS cells to EC50 for HIV1 RF; type: cell-based
[8] = Human immunodeficiency virus 1, RF, CEM-SS, read-out: EC50

## CCS(=O)(=O)CC(C)(O)[C@H]1CCc2c(c(C)cc(O)c(=O)c2O)C1 (mixture of isomers)
CEM-SS
  CC50: 10.4 µM
[1]
  IC50: 0.24 µM
[2]
  inhibition: inactive
[3]
  inhibition: inactive
[4]
  inhibition (INH): <50%

## CCSCC(C)(O)[C@H]1CCc2c(c(C)cc(O)c(=O)c2O)C1 (mixture of isomers)
CEM-SS
  CC50: 25.8 µM
[1]
  IC50: 0.38 µM
[2]
  inhibition: inactive
[3]
  inhibition: inactive
[4]
  inhibition (INH): <50%

## Cc1cc(O)c(=O)c(O)c2c1C[C@@H](C(C)(O)CSc1ccccc1)CC2 (mixture of isomers)
CEM-SS
  CC50: 17.8 µM
[1]
  IC50: 0.93 µM
[2]
  inhibition: inactive
[3]
  inhibition: inactive
[4]; [8]
  EC50: 11.5 µM

## CC(C)c1ccc(O)c(=O)c(O)c1 [BETA-THUJAPLICINOL]
[5]
  CC50: 2.3 µM
[1]
  IC50: 0.21 µM
[6]
  inhibition: inactive
[2]
  inhibition: inactive
[3]
  inhibition: inactive
[4]; cem-ss
  EC50: Not Active

## CCN(CC)CC(C)(O)[C@H]1CCc2c(c(C)cc(O)c(=O)c2O)C1 (mixture of isomers)
CEM-SS
  CC50: > 50 µM
[1]
  IC50: 0.5 µM
[6]
  inhibition: inactive
[2]
  inhibition: inactive
[3]
  inhibition: inactive
[4]
  inhibition (INH): <50%

## Cc1cc(O)c(=O)c(O)c2c1C[C@@H](C(C)NCc1ccccc1)CC2 (mixture of isomers)
CEM-SS
  CC50: 16.7 µM
[1]
  IC50: 0.96 µM
[2]
  inhibition: inactive
[3]
  inhibition: inactive
[4]; [8]
  EC50: 10.6 µM

## Cc1cc(O)c(=O)c(O)c2c1C[C@@H](C(C)(O)C[S+]([O-])c1ccccc1)CC2 (mixture of isomers)
CEM-SS
  CC50: > 50 µM
[1]
  IC50: 1.3 µM
[2]
  inhibition: Active
[3]
  inhibition: Active
[4]; [8]
  EC50: 14.5 µM

## Cc1cc(O)c(=O)c(O)c2c1C[C@@H](C(C)O)CC2 (mixture of isomers)
CEM-SS
  CC50: 26.1 µM
[1]
  IC50: 0.68 µM
[2]
  inhibition: inactive
[3]
  inhibition: inactive
[4]; [8]
  EC50: 6.9 µM

## CC(=O)Oc1cc(C)c2c(c(OC(C)=O)c1=O)CC[C@H](C(C)(O)CO)C2 (mixture of isomers)
[5]
  CC50: > 50 µM
[1]
  IC50: 1.9 µM
[6]
  inhibition: inactive
[2]
  inhibition: inactive
[3]
  inhibition: inactive
[4]; cem-ss
  EC50: Not Active

## Cc1cc(O)c(=O)c(O)c2c1C[C@@H](C(C)(O)CNCc1ccccc1F)CC2 (mixture of isomers)
CEM-SS
  CC50: > 50 µM
[1]
  IC50: 1.2 µM
[2]
  inhibition: inactive
[3]
  inhibition: inactive
[4]; cem-ss
  EC50: Not Active

## Cc1cc(O)c(=O)c(O)c2c1C[C@@H](C(C)(O)CNc1ccccc1)CC2 (mixture of isomers)
CEM-SS
  CC50: 31.7 µM
[1]
  IC50: 1.2 µM
[2]
  inhibition: Active
[3]
  inhibition: Active
[4]; [8]
  EC50: 7.4 µM

## Cc1cc(O)c(=O)c(O)c2c1C[C@@H](C(C)(O)CS(=O)(=O)c1ccccc1)CC2 (mixture of isomers)
CEM-SS
  CC50: > 50 µM
[1]
  IC50: 0.51 µM
[2]
  inhibition: inactive
[3]
  inhibition: inactive
[4]; [8]
  EC50: 21.2 µM

## Cc1cc(O)c(=O)c(O)c2c1C[C@@H](C(C)(O)Cn1ccnc1)CC2 (mixture of isomers)
CEM-SS
  CC50: > 50 µM
[6]
  inhibition: inactive
[2]
  inhibition: inactive
[3]
  inhibition: inactive
[4]; [8]
  EC50: 42.1 µM

## Cc1cc(O)c(=O)c(O)c2c1C[C@@H](C(C)(O)CSCc1ccccc1)CC2 (mixture of isomers)
CEM-SS
  CC50: 17.4 µM
[1]
  IC50: 1.3 µM
[2]
  inhibition: inactive
[3]
  inhibition: inactive
[4]; [8]
  EC50: 4.2 µM

## Cc1cc(O)c(=O)c(O)c2c1C[C@@H](C(C)(O)CN1CCCCC1)CC2 (mixture of isomers)
CEM-SS
  CC50: > 50 µM
[1]
  IC50: 0.82 µM
[2]
  inhibition: inactive
[3]
  inhibition: inactive
[7]
  selectivity ratio: 4.9
[4]; [8]
  EC50: 10.2 µM

## C=C(C)[C@H]1CCc2c(c(C)cc(O)c(=O)c2O)C1
[1]
  IC50: 0.6 µM
[6]
  inhibition: inactive
[2]
  inhibition: inactive
[3]
  inhibition: inactive
[4]; cem-ss
  EC50: Not Active
